Results reported in patent publication US6248309A, “Gums containing antimicrobial agents” (priority 1999, dated 2001).

Key:
[1] = tested on: Porphyromonas gingivalis (PG); assay: MIC of individual antimicrobial agents (Example 4); assay type: cell-based, Porphyromonas gingivalis ATCC 33277; conditions: Table 18
Text: (§1) The following example illustrates how antimicrobial agents useful in gum compositions of the present invention retard or prevent the growth of dental plaque bacteria present in the oral cavity. In addition, the example illustrates the lowest concentration of various antimicrobial agents that will inhibit visible in vitro growth of a particular bacteria.
(§2) The assay used a microtiter plate to dilute the antimicrobial agent to varying concentrations in order to determine the MIC.
(§3) A bacteria culture was incubated overnight at 37° C. Prior to dilution of the antimicrobial agents as described below, the bacterial culture was spun down at 2000 rpm into a pellet and resuspended in a solution of buffered phosphate. […]
(§4) The 96-well plate was incubated under conditions that varied depending on the particular microorganism. […] Following 48 hours of incubation, the incubated plate was read for microbial growth with a spectraphotometer by optical density (OD). The well containing the lowest dilution achievable with a spectraphotometer reading below 0.05 OD (i.e., no detectable microbial growth) was considered representative for the antimicrobial agent. The MIC for the agent was determined by accounting for the starting stock solution concentration and the resulting dilutions in the 96-well plate. […]

[2] = tested on: Actinomyces viscosus (AV); assay: MIC of individual antimicrobial agents (Example 4); assay type: cell-based, Actinomyces viscosus ATCC 19246; conditions: Table 18
Text: as §1, §2, §3, §4

[3] = tested on: Fusobacterium nucleatum (FN); assay: MIC of individual antimicrobial agents (Example 4); assay type: cell-based, Fusobacterium nucleatum ATCC 10933; conditions: Table 18
Text: as §1, §2, §3, §4

[4] = tested on: Streptococcus sanguis (SS); assay: MIC of individual antimicrobial agents (Example 4); assay type: cell-based, Streptococcus sanguis ATCC 49295; conditions: Table 18
Text: as §1, §2, §3, §4

[5] = tested on: Porphyromonas gingivalis (PG); assay: MIC of agents alone and in two-agent combination (Example 1); assay type: cell-based, Porphyromonas gingivalis ATCC 33277; conditions: concentration of chloramphenicol (agent A)
Method: (§5) The following example illustrates how the MIC of individual antimicrobial agents that are combined were determined and also illustrates how the MIC of the antimicrobial agents in combination were determined.
(§6) A microtiter plate was used to dilute the antimicrobial agents to varying concentrations in order to determine the MIC of those antimicrobial agents alone and the MIC of the agents when combined.
(§7) A bacterial culture was incubated at 37° C. Prior to the dilution of the antimicrobial agents as described below, the bacterial culture was spun down at 2,000 rpm into a pellet and resuspended in a solution of buffered phosphate. The innoculum was normalized with a spectrophotometer to an optical density at 550 nanometers of between 0.180-0.220 (equivalent to 5.0×10^7 colony forming units, CFU per milliliter). The innoculum was set aside until the completion of the antimicrobial agent dilution. […]
(§8) Following 48 hours of incubation, the incubated plate was read for microbial growth with a spectrophotometer by optical density (OD). The well containing the lowest dilution achievable for each agent with a spectrophotometer reading below 0.05 OD (i.e., no detectable microbial growth) was considered representative for the combination. The MIC for each agent in the combination was determined by accounting for the starting stock solution concentration and the resulting dilutions in the 96-well plate. […]

[6] = tested on: Fusobacterium nucleatum (FN); assay: as above; assay type: cell-based, Fusobacterium nucleatum ATCC 10933; conditions: concentration of chloramphenicol (agent A)
Method: as §5, §6, §7, §8

[7] = tested on: Actinomyces viscosus (AV); assay: as above; assay type: cell-based, Actinomyces viscosus ATCC 19246; conditions: concentration of chloramphenicol (agent A)
Method: as §5, §6, §7, §8

[8] = tested on: Streptococcus mutans (SM); assay: as above; assay type: cell-based, Streptococcus mutans ATCC 25175; conditions: concentration of chloramphenicol (agent A)
Method: as §5, §6, §7, §8

[9] = tested on: Streptococcus sanguis (SS); assay: as above; assay type: cell-based, Streptococcus sanguis ATCC 49295; conditions: concentration of chloramphenicol (agent A)
Method: as §5, §6, §7, §8

[10] = tested on: Streptococcus mutans (SM); assay: MIC of individual antimicrobial agents (Example 4); assay type: cell-based, Streptococcus mutans ATCC 25175; conditions: Table 18
Text: as §1, §2, §3, §4

O=C(NC(CO)C(O)c1ccc([N+](=O)[O-])cc1)C(Cl)Cl (stereo not shown) [CR1, 2,2-dichloro-N-[2-hydroxyl-1-(hydroxymethyl)-2-(4-nitrophenyl)ethyl]acetamide]
MIC [1]: 6.3 µg/mL
MIC [2]: 3.1 µg/mL
MIC [3]: 3.1 µg/mL
MIC [4]: 3.1 µg/mL
MIC of Chloramphenicol alone and when combined with Agent B [5]: 6.9 µg/mL
MIC of Chloramphenicol alone and when combined with Agent B [6]: 1.8 µg/mL
MIC of Chloramphenicol alone and when combined with Agent B [7]: 5.4 µg/mL
MIC of Chloramphenicol alone and when combined with Agent B [8]: 5.2 µg/mL
MIC of Chloramphenicol alone and when combined with Agent B [9]: 3.2 µg/mL
MIC [10]: 3.1 µg/mL
